Results published in patent US10499642B2, “Isoxazoline-substituted benzamides and analogues as insecticides” (SYNGENTA PARTICIPATIONS AG, priority 2015, dated 2019).

Assays:
Type in all cases: in vivo
Myzus persicae = Myzus persicae (green peach aphid) sunflower leaf disc test; details: foliar, 144 h
Method: Myzus persicae (Green Peach Aphid):
Sunflower leaf discs were placed on agar in a 24-well microtiter plate and sprayed with test solutions at an application rate of 200 ppm. After drying, the leaf discs were infested with an aphid population of mixed ages. After an incubation period of 6 days after treatment, samples were checked for mortality. The following compounds gave at least 80% mortality of Myzus persicae: […]

Spodoptera littoralis = Spodoptera littoralis (Egyptian cotton leaf worm) cotton leaf disc test; details: foliar, 72 h, read-out: control (at least one of mortality, anti-feedant effect, and growth inhibition)
Summary of the method: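 Five first-instar larvae per disc were placed on dried, sprayed cotton leaf discs held on agar. Test solutions were aqueous, made from 10′000 ppm DMSO stocks. At day 3, control was counted when mortality, feeding deterrence or growth inhibition exceeded the untreated discs.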

Diabrotica Balteata = test: Diabrotica balteata (corn root worm) maize sprout test; details: 96 h, read-out: effect in at least one of the two categories (mortality or growth inhibition)
Summary of the method: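 Scoring covered both mortality and growth inhibition relative to untreated controls, 4 days post-infestation. Test solutions at 200 ppm, diluted in water from 10′000 ppm DMSO stocks, were sprayed onto agar-held maize sprouts, which after drying received 6 to 10 L2 larvae each well.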

Tetranychus urticae = Tetranychus urticae (two-spotted spider mite) bean leaf disc test; details: foliar, 192 h
Method: Tetranychus urticae (Two-Spotted Spider Mite):
Bean leaf discs on agar in 24-well microtiter plates were sprayed with aqueous test solutions prepared from 10′000 ppm DMSO stock solutions. After drying the leaf discs were infested with a mite population of mixed ages. The samples were assessed for mortality on mixed population (mobile stages) 8 days after infestation.

Thrips tabaci = Thrips tabaci (onion thrips) sunflower leaf disc test; details: foliar, 144 h
Method: Thrips tabaci (Onion Thrips):
Sunflower leaf discs were placed on agar in 24-well microtiter plates and sprayed with aqueous test solutions prepared from 10′000 ppm DMSO stock solutions. After drying the leaf discs were infested with a thrips population of mixed ages. The samples were assessed for mortality 6 days after infestation.

Plutella xylostella = Plutella xylostella (diamond back moth) artificial diet test; details: 120 h, read-out: effect in at least one of the two categories (mortality or growth inhibition)
Summary of the method: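 At a 200 ppm rate, test solutions were applied to artificial diet and allowed to dry before second-instar larvae were added. Five days later, larval mortality and growth inhibition were rated against untreated samples.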

O=C(NC1CC(Cl)=NO1)c1ccc(C2=NO[C@@](c3cc(Cl)c(Cl)c(Cl)c3)(C(F)(F)F)C2)cc1Cl (stereo partly drawn) [Compound A018, 2-chloro-N-(3-chloro-4,5-dihydroisoxazol-5-yl)-4-[(5S)-5-(3,4,5-trichlorophenyl)-5-(trifluoromethyl)-4H-isoxazol-3-yl]benzamide]
≥ 80%: mortality at 200 ppm (Myzus persicae) | percent control (mortality, anti-feedant effect or growth inhibition) at 200 ppm (Spodoptera littoralis) | percent effect (mortality or growth inhibition) at 200 ppm (Diabrotica Balteata) | mortality at 200 ppm (Tetranychus urticae) | mortality at 200 ppm (Thrips tabaci) | percent effect (mortality or growth inhibition) at 200 ppm (Plutella xylostella)

CC1=NOC(NC(=O)c2ccc(C3=NO[C@@](c4cc(Cl)c(F)c(Cl)c4)(C(F)(F)F)C3)cc2Br)C1 (stereo partly drawn) [Compound A036, 2-bromo-4-[(5S)-5-(3,5-dichloro-4-fluoro-phenyl)-5-(trifluoromethyl)-4H-isoxazol-3-yl]-N-(3-methyl-4,5-dihydroisoxazol-5-yl)benzamide]
≥ 80%: mortality at 200 ppm (Myzus persicae) | percent control (mortality, anti-feedant effect or growth inhibition) at 200 ppm (Spodoptera littoralis) | percent effect (mortality or growth inhibition) at 200 ppm (Diabrotica Balteata) | mortality at 200 ppm (Tetranychus urticae) | mortality at 200 ppm (Thrips tabaci) | percent effect (mortality or growth inhibition) at 200 ppm (Plutella xylostella)

CCOC1=NOC(NC(=O)c2ccc(C3=NO[C@@](c4cc(Cl)c(Cl)c(Cl)c4)(C(F)(F)F)C3)cc2Cl)C1 (stereo partly drawn) [Compound A060, 2-chloro-N-(3-ethoxy-4,5-dihydroisoxazol-5-yl)-4-[(5S)-5-(3,4,5-trichlorophenyl)-5-(trifluoromethyl)-4H-isoxazol-3-yl]benzamide]
≥ 80%: mortality at 200 ppm (Myzus persicae) | percent control (mortality, anti-feedant effect or growth inhibition) at 200 ppm (Spodoptera littoralis) | percent effect (mortality or growth inhibition) at 200 ppm (Diabrotica Balteata) | mortality at 200 ppm (Tetranychus urticae) | mortality at 200 ppm (Thrips tabaci) | percent effect (mortality or growth inhibition) at 200 ppm (Plutella xylostella)

Cc1cc(C2=NO[C@@](c3cc(Cl)cc(Cl)c3)(C(F)(F)F)C2)ccc1C(=O)N[C@H]1CC(C(F)(F)F)=NO1 (single isomer, unassigned) [Compound A155]
≥ 80%: mortality at 200 ppm (Myzus persicae) | percent control (mortality, anti-feedant effect or growth inhibition) at 200 ppm (Spodoptera littoralis) | percent effect (mortality or growth inhibition) at 200 ppm (Diabrotica Balteata) | mortality at 200 ppm (Tetranychus urticae) | mortality at 200 ppm (Thrips tabaci) | percent effect (mortality or growth inhibition) at 200 ppm (Plutella xylostella)

Cc1cc(C2=NO[C@@](c3cc(Cl)c(F)c(Cl)c3)(C(F)(F)F)C2)ccc1C(=O)N(C=O)C1CC(C2CC2)=NO1 (stereo partly drawn) [Compound A031, N-(3-cyclopropyl-4,5-dihydroisoxazol-5-yl)-4-[(5S)-5-(3,5-dichloro-4-fluoro-phenyl)-5-(trifluoromethyl)-4H-isoxazol-3-yl]-N-formyl-2-methyl-benzamide]
≥ 80%: mortality at 200 ppm (Myzus persicae) | percent control (mortality, anti-feedant effect or growth inhibition) at 200 ppm (Spodoptera littoralis) | percent effect (mortality or growth inhibition) at 200 ppm (Diabrotica Balteata) | mortality at 200 ppm (Tetranychus urticae) | mortality at 200 ppm (Thrips tabaci) | percent effect (mortality or growth inhibition) at 200 ppm (Plutella xylostella)

Cc1cc(C2=NO[C@@](c3cc(Cl)c(F)c(Cl)c3)(C(F)(F)F)C2)ccc1C(=O)NC1CC(OCC(F)(F)C(F)F)=NO1 (stereo partly drawn) [Compound A101]
≥ 80%: mortality at 200 ppm (Myzus persicae) | percent control (mortality, anti-feedant effect or growth inhibition) at 200 ppm (Spodoptera littoralis) | percent effect (mortality or growth inhibition) at 200 ppm (Diabrotica Balteata) | mortality at 200 ppm (Tetranychus urticae) | mortality at 200 ppm (Thrips tabaci) | percent effect (mortality or growth inhibition) at 200 ppm (Plutella xylostella)

Cc1cc(C2=NO[C@@](c3cc(Cl)c(Cl)c(Cl)c3)(C(F)(F)F)C2)ccc1C(=O)NC1CC(Br)=NO1 (stereo partly drawn) [Compound A125, N-(3-bromo-4,5-dihydroisoxazol-5-yl)-2-methyl-4-[(5S)-5-(3,4,5-trichlorophenyl)-5-(trifluoromethyl)-4H-isoxazol-3-yl]benzamide]
≥ 80%: mortality at 200 ppm (Myzus persicae) | percent control (mortality, anti-feedant effect or growth inhibition) at 200 ppm (Spodoptera littoralis) | percent effect (mortality or growth inhibition) at 200 ppm (Diabrotica Balteata) | mortality at 200 ppm (Tetranychus urticae) | mortality at 200 ppm (Thrips tabaci) | percent effect (mortality or growth inhibition) at 200 ppm (Plutella xylostella)

CC1=NOC(N(C=O)C(=O)c2ccc(C3=NO[C@@](c4cc(Cl)cc(C(F)(F)F)c4)(C(F)(F)F)C3)cc2C)C1 (stereo partly drawn) [Compound A039, 4-[(5S)-5-[3-chloro-5-(trifluoromethyl)phenyl]-5-(trifluoromethyl)-4H-isoxazol-3-yl]-N-formyl-2-methyl-N-(3-methyl-4,5-dihydroisoxazol-5-yl)benzamide]
≥ 80%: mortality at 200 ppm (Myzus persicae) | percent control (mortality, anti-feedant effect or growth inhibition) at 200 ppm (Spodoptera littoralis) | percent effect (mortality or growth inhibition) at 200 ppm (Diabrotica Balteata) | mortality at 200 ppm (Tetranychus urticae) | mortality at 200 ppm (Thrips tabaci) | percent effect (mortality or growth inhibition) at 200 ppm (Plutella xylostella)

CC1=NOC(N(C=O)C(=O)c2ccc(C3=NO[C@@](c4cc(Cl)c(F)c(Cl)c4)(C(F)(F)F)C3)cc2Br)C1 (stereo partly drawn) [Compound A034, 2-bromo-4-[(5S)-5-(3,5-dichloro-4-fluoro-phenyl)-5-(trifluoromethyl)-4H-isoxazol-3-yl]-N-formyl-N-(3-methyl-4,5-dihydroisoxazol-5-yl)benzamide]
≥ 80%: mortality at 200 ppm (Myzus persicae) | percent control (mortality, anti-feedant effect or growth inhibition) at 200 ppm (Spodoptera littoralis) | percent effect (mortality or growth inhibition) at 200 ppm (Diabrotica Balteata) | mortality at 200 ppm (Tetranychus urticae) | mortality at 200 ppm (Thrips tabaci) | percent effect (mortality or growth inhibition) at 200 ppm (Plutella xylostella)
